The values that follow are results of earlier work, collected in US5288707A, “Borolysine peptidomimetics” (Sandoz Ltd., priority 1990, dated 1994).

One data set concerns the target thrombin (Homo sapiens, UniProt P00734). The note with it: reversible and irreversible inhibitors, value given as a range of magnitude.
For data set [1] the following is noted: in vivo.

On to `N=C(N)NCCC[C@@H](C=O)NC(=O)[C@@H]1CCCN1C(=O)[C@H](N)Cc1ccccc1` [D-Phe-Pro-Arginal], for which the inhibition in vitro on thrombin is recorded as ~10^-8 M. Moreover, the LD50 value entry in data set [1] is recorded as “quite a low”.
On to `NC(N)=NCCC[C@H](NC(=O)[C@@H]1CCCN1C(=O)[C@H](N)Cc1ccccc1)C(=O)CCl` [D-Phe-Pro-Arg-CH2 Cl], for which the inhibition in vitro at thrombin is on record as ~10^-8 M.
